From publication PMC11403423 (iScience, 2024)

Key:
[1] = system: #1-LTL+ and #2-LTL+ PToCs; assay: Nephrotoxicity testing, LDH release; assay type: cell-based, human; conditions: for Effect on cisplatin-induced LDH release: cimetidine 10 mM, cisplatin 100 μM
[2] = system: MRPs; assay: Transcellular transport assay of OAT1/3 substrates with MK571 in #1-LTL+ PToC; conditions: 10 μM MK571
[3] = system: MRPs; assay: Fluorescein uptake and transport with MK571 in #1-LTL+ PToC; assay type: cell-based, human
[4] = target: T1, OAT1 (Homo sapiens, UniProt Q4U2R8); assay: Transcellular transport assay of OAT1 substrates; conditions: 10 μM substrate; #1-LTL+ PToC
T1 sequence (Q4U2R8 1-563): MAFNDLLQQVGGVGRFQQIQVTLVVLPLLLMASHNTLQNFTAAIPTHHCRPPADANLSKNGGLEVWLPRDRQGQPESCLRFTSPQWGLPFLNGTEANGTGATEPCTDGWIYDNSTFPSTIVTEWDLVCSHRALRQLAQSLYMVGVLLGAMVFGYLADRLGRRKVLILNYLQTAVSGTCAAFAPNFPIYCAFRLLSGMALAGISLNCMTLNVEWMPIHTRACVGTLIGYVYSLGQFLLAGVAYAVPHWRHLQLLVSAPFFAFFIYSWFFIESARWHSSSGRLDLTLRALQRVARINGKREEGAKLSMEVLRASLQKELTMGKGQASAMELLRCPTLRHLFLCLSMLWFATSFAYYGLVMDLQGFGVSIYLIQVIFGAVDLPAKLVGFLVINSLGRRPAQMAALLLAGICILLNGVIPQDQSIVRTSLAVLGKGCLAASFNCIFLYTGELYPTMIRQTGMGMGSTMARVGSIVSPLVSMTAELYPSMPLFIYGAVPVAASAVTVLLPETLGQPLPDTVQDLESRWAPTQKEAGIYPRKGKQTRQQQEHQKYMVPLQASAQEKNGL

[5] = system: #1-LTL+ PToC; assay: LIVE/DEAD cell viability assay; assay type: cell-based, human; conditions: cimetidine with cisplatin
[6] = system: OAT1/3; assay: Transported fluorescein amount; assay type: in vitro ADME, human; conditions: plate reader; 30 min
[7] = system: OAT1/3; assay: Fluorescein uptake assay; assay type: cell-based, human; conditions: 2 μM fluorescein, 30 min
[8] = system: OCT2 and MATE1; assay: Transcellular transport assay of metformin in PToC, LC/MS
[9] = target: T2, OAT3 (Homo sapiens, UniProt Q8TCC7); assay: Transcellular transport assay of OAT3 substrate
T2 sequence (Q8TCC7 1-542): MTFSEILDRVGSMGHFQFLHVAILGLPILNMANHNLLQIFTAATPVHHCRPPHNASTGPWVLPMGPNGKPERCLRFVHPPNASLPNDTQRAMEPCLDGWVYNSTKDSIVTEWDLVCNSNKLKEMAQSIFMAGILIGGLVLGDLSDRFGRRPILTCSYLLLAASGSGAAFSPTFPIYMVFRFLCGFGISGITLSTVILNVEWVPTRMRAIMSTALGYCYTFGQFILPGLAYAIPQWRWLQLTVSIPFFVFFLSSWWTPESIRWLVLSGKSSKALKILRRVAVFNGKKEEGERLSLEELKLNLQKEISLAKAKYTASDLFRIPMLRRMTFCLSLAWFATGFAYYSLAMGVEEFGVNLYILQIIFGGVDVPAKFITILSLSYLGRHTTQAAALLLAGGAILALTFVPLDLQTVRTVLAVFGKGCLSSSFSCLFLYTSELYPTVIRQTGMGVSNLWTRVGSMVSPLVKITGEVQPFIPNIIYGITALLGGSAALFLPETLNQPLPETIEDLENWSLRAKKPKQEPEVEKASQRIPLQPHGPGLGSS

[10] = target: P-gp (Homo sapiens, UniProt P08183); conditions: #2-LTL+ PToC
P-gp, sequence (P08183 whole entry): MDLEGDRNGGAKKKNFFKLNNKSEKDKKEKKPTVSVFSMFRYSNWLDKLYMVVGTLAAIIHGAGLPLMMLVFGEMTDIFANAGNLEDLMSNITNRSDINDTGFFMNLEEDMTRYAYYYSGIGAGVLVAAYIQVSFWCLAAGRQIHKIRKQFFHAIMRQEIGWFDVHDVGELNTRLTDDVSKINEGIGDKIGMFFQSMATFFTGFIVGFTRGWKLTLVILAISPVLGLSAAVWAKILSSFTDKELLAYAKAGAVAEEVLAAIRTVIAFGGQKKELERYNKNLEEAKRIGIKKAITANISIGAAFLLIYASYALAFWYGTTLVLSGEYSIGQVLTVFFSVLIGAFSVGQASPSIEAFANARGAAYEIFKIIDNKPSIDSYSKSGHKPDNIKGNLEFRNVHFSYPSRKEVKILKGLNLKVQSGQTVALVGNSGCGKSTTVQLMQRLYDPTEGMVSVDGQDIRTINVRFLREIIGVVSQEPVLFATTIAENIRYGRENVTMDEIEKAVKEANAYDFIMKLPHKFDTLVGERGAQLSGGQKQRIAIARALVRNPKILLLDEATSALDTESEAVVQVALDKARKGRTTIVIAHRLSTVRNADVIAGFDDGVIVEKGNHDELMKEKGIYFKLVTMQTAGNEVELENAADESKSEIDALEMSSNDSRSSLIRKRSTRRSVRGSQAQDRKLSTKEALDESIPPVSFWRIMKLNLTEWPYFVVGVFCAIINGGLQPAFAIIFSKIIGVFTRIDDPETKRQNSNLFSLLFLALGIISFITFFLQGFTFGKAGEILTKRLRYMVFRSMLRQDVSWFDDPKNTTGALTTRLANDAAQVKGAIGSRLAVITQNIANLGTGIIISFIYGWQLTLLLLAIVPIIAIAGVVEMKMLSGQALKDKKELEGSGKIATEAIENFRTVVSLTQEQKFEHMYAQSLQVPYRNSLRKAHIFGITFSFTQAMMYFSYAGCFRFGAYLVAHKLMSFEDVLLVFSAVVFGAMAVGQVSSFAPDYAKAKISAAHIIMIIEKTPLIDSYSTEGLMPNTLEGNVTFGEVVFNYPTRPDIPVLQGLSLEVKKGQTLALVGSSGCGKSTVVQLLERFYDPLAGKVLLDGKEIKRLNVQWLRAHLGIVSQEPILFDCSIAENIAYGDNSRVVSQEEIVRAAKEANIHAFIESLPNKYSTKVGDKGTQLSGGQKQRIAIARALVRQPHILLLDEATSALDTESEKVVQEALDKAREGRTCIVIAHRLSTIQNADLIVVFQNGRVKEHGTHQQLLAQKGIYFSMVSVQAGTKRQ

COc1cccc2c1cc([N+](=O)[O-])c1c(C(=O)O)cc3c(c12)OCO3 [AA, Aristolochic acid I]
Normalized LDH release in #1-LTL+ compared to #2-LTL+ ([1]; 50 μM, 24 h): markedly higher | Normalized LDH release compared to control group without aristolochic acid ([1]; 50 μM, basal, 24 h, #1-LTL+ and #2-LTL+ PToCs): significantly higher

CN(C)C(=O)CCSC(SCCC(=O)O)c1cccc(/C=C/c2ccc3ccc(Cl)cc3n2)c1 (stereo not drawn) [MK571]
Effect on OAT1 excretion of PAH [2]: significant impairment | Effect on OAT1 excretion of adefovir [2]: significant impairment | Effect on OAT3 transport of rosuvastatin [2]: no substantial effect | Fluorescein transcellular transport [3]: reduction | Intracellular fluorescein accumulation (fluorescence intensity) [3]: notable increase

Nc1ncnc2c1ncn2CCOCP(=O)(O)O [adefovir]
Basal to apical (b → a) transport (Papp) in #1-LTL+ versus other PToC models [4]: notably higher

CN/C(=N/CCSCc1nc[nH]c1C)NC#N [cimetidine]
Effect on cisplatin-induced cell death (LIVE/DEAD) [5]: reduction in cell death | Effect on cisplatin-induced LDH release ([1]; 24 h, #1-LTL+): significant reduction | Effect on cisplatin-induced LDH release ([1]; 24 h, #2-LTL+): less pronounced | Effect on cisplatin-induced LDH release ([1]; 48 h, #1-LTL+ PToC): no difference among all conditions | Effect on cisplatin-induced LDH release ([1]; 48 h, #2-LTL+ PToC): notable reduction

O=C1OC2(c3ccc(O)cc3Oc3cc(O)ccc32)c2ccccc21 [fluorescein]
Transcellular transport of fluorescein in #2-LTL+ PToC relative to #1-LTL+ PToC [6]: 10% | Fluorescein uptake of #2-LTL+ PToC relative to #1-LTL+ PToC [7]: approximately 60% | Fluorescein uptake compared to RPTEC ([7]; #1-LTL+ and #2-LTL+ PToC, absence of probenecid): significantly higher fluorescein uptake

CN(C)C(=N)N=C(N)N [metformin]
Difference in ER between #1-LTL+ and #2-LTL+ PToCs [8]: no significant differences | Transcellular basal to apical (b → a) transport rate, comparison of PToCs ([8]; #1-LTL+ PToC versus #2-LTL+ and RPTEC): highest transport rates

CCCN(CCC)S(=O)(=O)c1ccc(C(=O)O)cc1 [probenecid]
Impact on rosuvastatin transport ([9]; probenecid 100 μM, #1-LTL+ and #2-LTL+): minimal impact

C=C[C@H]1C[N@@]2CC[C@H]1C[C@@H]2[C@@H](O)c1ccnc2ccc(OC)cc12 [quinidine]
Basal to apical (b → a) transport rate compared with RPTEC [10]: less basal to apical (b → a) transport rate

CC(C)c1nc(N(C)S(C)(=O)=O)nc(-c2ccc(F)cc2)c1/C=C/[C@@H](O)C[C@@H](O)CC(=O)O [rosuvastatin]
Basal to apical (b → a) transport (Papp) in #1-LTL+ versus other PToC models ([9]; 10 μM substrate, #1-LTL+ PToC): notably higher
